Values quoted from earlier work, collected in patent US20050164987A1, “Melatonin combination therapy for improving sleep quality” (priority 2003, published 2005).
Read-outs that look alike come from different tables or passages of the source.

How the values were obtained:
[1] = in vivo
[2] = test system: mammalian melatonin receptors
[3] = test system: patients with major depressive disorder; conditions: 1, 5 and 25 mg once a day vs placebo, 8 weeks, over 700 patients
GABA uptake system = conditions: concentrations of 5×10^-4 M
sleep = conditions: post-nap
[4] = target: GABA:2-oxo-glutarate aminotransferase (Homo sapiens, UniProt P80404); conditions: concentrations of 10^−3 M
[5] = test system: L-glutamate 1-carboxylase; conditions: concentrations of 10^−3 M
[6] = test system: healthy, elderly patients; conditions: oral administration
[7] = test system: lumbar dorsal horn interneurones and Renshaw cells; conditions: in vivo
mice = conditions: reference agents; scores below 40 denote behavioral depression
human MT1 receptors = human MT1 receptors (Homo sapiens, UniProt P48039)
[8] = target: T1, brain omega-1 receptor located on alpha subunit of the GABAA/chloride ion channel receptor complex (Homo sapiens, UniProt P14867+P18507)
T1 construct: host or cells: brain

[9] = from the stomach
[10] = not given; remark: listed apart in the source
levels of melatonin = conditions: rats
physiological rhythms = conditions: 5 mg dose; simulated 9 h time lag
[11] = test system: calcium-dependent release of dopamine from chicken retina; conditions: picomolar concentrations
[12] = test system: calcium-dependent release of dopamine from rabbit retina; conditions: picomolar concentrations
rats [13] = test system: rats
[14] = test system: other melatonin receptors
MT-3 melatonin sites = conditions: hamster brain
rats [15] = test system: rats; remark: listed apart in the source
ML2 receptors = ML2 receptors (Homo sapiens, UniProt P16083)
[16] = not given; remark: listed apart in the source
[17] = 10 mg or 64 mg dosages, compared to placebo

Sequence of GABA:2-oxo-glutarate aminotransferase (P80404 29-500): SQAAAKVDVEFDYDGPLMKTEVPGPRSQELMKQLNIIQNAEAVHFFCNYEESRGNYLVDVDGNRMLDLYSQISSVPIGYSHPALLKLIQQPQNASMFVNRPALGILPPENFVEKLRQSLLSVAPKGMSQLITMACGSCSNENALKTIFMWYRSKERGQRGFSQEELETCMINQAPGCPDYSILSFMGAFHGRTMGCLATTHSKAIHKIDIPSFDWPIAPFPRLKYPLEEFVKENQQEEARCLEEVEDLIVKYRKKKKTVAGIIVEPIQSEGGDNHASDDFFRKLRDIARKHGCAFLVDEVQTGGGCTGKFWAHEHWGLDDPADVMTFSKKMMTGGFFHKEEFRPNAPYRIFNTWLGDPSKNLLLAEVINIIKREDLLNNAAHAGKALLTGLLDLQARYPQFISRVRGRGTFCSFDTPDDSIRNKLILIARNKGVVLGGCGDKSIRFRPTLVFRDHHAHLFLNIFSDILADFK
Sequence of human MT1 receptors (P48039 whole entry): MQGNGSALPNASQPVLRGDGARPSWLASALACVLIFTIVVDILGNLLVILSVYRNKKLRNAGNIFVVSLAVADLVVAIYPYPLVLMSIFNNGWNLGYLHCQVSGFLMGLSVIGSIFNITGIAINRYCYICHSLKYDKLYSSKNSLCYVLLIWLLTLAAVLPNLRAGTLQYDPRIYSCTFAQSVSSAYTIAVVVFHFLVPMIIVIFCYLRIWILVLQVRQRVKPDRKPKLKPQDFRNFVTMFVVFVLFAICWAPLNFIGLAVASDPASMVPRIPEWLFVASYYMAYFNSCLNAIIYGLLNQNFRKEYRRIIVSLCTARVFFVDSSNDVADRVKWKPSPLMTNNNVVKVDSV
Sequence of ML2 receptors (P16083 whole entry): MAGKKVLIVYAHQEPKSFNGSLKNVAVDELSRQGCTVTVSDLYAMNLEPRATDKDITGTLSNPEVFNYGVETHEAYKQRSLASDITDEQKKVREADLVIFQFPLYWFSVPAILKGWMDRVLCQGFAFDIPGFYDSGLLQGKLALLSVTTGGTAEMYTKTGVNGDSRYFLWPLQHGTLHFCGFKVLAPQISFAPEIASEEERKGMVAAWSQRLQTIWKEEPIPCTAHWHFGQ
T1 sequence (P14867 28-456): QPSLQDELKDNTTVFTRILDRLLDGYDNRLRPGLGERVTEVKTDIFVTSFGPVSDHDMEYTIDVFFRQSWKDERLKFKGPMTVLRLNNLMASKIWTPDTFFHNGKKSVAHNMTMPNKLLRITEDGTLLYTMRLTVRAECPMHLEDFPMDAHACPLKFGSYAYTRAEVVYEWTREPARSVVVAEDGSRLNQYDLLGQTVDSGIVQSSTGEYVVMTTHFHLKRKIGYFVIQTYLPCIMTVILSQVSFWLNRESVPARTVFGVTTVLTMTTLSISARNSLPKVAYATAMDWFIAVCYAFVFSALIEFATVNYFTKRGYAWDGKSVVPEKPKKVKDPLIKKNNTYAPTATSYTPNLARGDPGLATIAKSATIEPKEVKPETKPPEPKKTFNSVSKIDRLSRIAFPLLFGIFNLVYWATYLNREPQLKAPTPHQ
T1 sequence (P18507 40-475): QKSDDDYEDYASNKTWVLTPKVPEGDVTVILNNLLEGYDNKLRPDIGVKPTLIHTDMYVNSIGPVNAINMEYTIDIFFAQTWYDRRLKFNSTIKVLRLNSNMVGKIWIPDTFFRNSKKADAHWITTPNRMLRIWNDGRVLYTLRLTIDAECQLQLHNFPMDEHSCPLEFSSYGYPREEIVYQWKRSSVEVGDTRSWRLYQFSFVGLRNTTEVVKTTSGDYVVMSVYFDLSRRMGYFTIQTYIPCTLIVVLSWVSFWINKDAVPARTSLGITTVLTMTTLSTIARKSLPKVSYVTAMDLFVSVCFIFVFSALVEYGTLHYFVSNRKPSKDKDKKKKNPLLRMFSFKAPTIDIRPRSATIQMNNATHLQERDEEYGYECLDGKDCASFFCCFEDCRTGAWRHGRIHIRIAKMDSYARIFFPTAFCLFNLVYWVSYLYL
T1 sequence (P47870 25-512 partner limits assumed): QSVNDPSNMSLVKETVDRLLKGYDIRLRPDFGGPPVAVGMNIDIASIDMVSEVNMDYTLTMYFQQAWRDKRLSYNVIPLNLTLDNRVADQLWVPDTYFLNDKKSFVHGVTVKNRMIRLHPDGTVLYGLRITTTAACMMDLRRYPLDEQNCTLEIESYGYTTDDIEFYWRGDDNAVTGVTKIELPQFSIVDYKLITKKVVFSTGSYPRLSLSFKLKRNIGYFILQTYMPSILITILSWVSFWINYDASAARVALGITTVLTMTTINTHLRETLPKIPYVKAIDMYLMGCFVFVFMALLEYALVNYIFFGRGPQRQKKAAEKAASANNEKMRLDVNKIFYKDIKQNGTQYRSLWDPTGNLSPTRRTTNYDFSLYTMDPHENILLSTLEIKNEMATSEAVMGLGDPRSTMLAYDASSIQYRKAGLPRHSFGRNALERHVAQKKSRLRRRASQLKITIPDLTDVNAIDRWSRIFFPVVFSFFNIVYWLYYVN

CC(=O)N(C)c1cccc(-c2ccnc3c(C(=O)c4cccs4)cnn23)c1 [Indiplon, N-methyl-N-(3-{3-[2-thienylcarbonyl]-pyrazolo-[1,5-a]-pyrimidin-7-yl}-phenyl)acetamide]
half-life [1]: approximately 1.3 hours

CC(=O)NCCc1c(Cc2ccccc2)[nH]c2ccccc12 [Luzindole, 2-benzyl-N-acetyltryptamine]
calcium-dependent release of [3H]dopamine ([2]; concentrations up to 10 μM): does not modify | spontaneous outflow of [3H]dopamine ([2]; concentrations up to 10 μM): does not modify | ability of melatonin to inhibit [3H]dopamine release ([2]; in a competitive fashion): antagonize

COc1ccc2cccc(CCNC(C)=O)c2c1 [agomelatine]
optimal dosage [3]: 25 mg

Oc1noc2c1CCNC2 [gaboxadol, 4,5,6,7-tetrahydroisoxazolo[5,4-c]pyridin-3-ol]
interaction with the GABA uptake system (GABA uptake system): did not interact | deep sleep (sleep): promoting | falling asleep (sleep): facilitates falling asleep | total sleep time (sleep): increasing | interaction with GABA:2-oxo-glutarate aminotransferase [4]: did not interact | interaction with L-glutamate 1-carboxylase [5]: did not interact | intensity of non-REM sleep [6]: increase | sleep consolidation [6]: increase | effect of bicuculline methochloride (BMC) on the inhibitory action on central neurones [7]: reversibly antagonized

CCCC(C)(COC(N)=O)COC(N)=O [meprobamate]
ED100 (mice): 300 mg/kg

CC(=O)NCCN1CCc2ccc3c(c21)CCO3 [GR196429, N-[2-[2,3,7,8-tetrahydro-1H-furo(2,3-g)indol-1-yl]ethyl]acetamide]
pKi (human MT1 receptors): 9.9

CCN(C(C)=O)c1cccc(-c2ccnc3c(C#N)cnn23)c1 [Zaleplon, N-[3-(3-cyanopyrazolo[1,5-a]pyrimidin-7-yl)phenyl]-N-ethylacetamide]
binding to brain omega-1 receptor [8]: binds selectively | time of peak plasma concentrations (following oral administration): 1 h | bioavailability (oral, substantial presystemic metabolism): 30%

CCC1(c2ccccc2)CCC(=O)NC1=O (centres unmarked) [glutethimide]
ED100 (mice): 300 mg/kg

zopiclone
absorption [9]: well absorbed

CP(=O)(O)CCCN [SKF 97541, 3-aminopropyl(methyl)phosphinic acid]
solubility in water and dilute aqueous base [10]: readily soluble

CCC(=O)NCC1Cc2cccc(OC)c2C1 (centres unmarked) [GG-012, 4-methoxy-2-(methylenepropylamide)indan]
levels of melatonin (levels of melatonin): two-fold increase

COc1cc2c([C@@H](C)CNC(C)=O)c[nH]c2cc1Cl [LY 156735]
readaptation speed of physiological rhythms (physiological rhythms): enhanced the readaptation speed

COc1ccc2[nH]cc(CCNC(C)=O)c2c1 [melatonin, N-[2-(5-Methoxy-1H-indol-3-yl)ethyl]acetamide]
calcium-dependent release of dopamine [11]: selectively inhibit | calcium-dependent release of dopamine [12]: selectively inhibit

COc1ccc2[nH]cc(CCNc3ccc([N+](=O)[O-])cc3[N+](=O)[O-])c2c1 [ML-23, N-2,4-dinitrophenyl-5-methoxy-tryptamine]
development of severe motor impairment (rats [13]): prevented

CCCC(C)C1(CC)C(=O)NC(=O)NC1=O (centres unmarked) [pentobarbital]
ED100 (mice): 100 mg/kg

COC(=O)[C@H]1[C@H]2C[C@@H]3c4[nH]c5cc(OC)ccc5c4CCN3C[C@H]2C[C@@H](OC(=O)c2cc(OC)c(OC)c(OC)c2)[C@@H]1OC [reserpine]
ED100 (mice): 50 mg/kg

O=C(CCCN1CCC(O)(c2ccc(Cl)cc2)CC1)c1ccc(F)cc1 [haloperidol]
ED100 (mice): 10 mg/kg

COC(=O)Nc1ccc2[nH]cc(CCNC(C)=O)c2c1 [5-MCA-NAT, 5-methoxy-carbonylamino-N-acetyltryptamine]
affinity or efficacy for other melatonin receptors [14]: low affinity or efficacy | affinity for MT-3 melatonin sites (MT-3 melatonin sites): high affinity

COc1cccc2c1CC(NC(C)=O)CC2 (centres unmarked) [AH-001, 2-acetamido-8-methoxytetralin]
levels of melatonin (levels of melatonin): increase

CN1C(=O)CN=C(c2ccccc2)c2cc(Cl)ccc21 [diazepam, 7-chloro-1,3-dihydro-1-methyl-5-phenyl-2H-1,4-benzodiazepin-2-one]
ED100 (mice): 50 mg/kg

CCC(=O)NCC[C@@H]1CCc2ccc3c(c21)CCO3 [TAK-375]
binding affinity for benzodiazepine receptors (benzodiazepine receptors): virtually no binding affinity | falling asleep (human subjects; [17]): fall asleep more quickly | remaining asleep (human subjects; [17]): remain asleep for a longer period of time | side effects (human subjects; human subjects): limited to only a few cases of headache, somnolence, fatigue, nausea, and dissiness | duration of sleep-promoting effects (rats [15]; compared with melatonin): last longer than those of melatonin | learning or memory (rats [15]; rat, in vivo): did not impair | potential for drug dependence (rats [15]; rats): did not demonstrate the potential for drug dependence | affinity for ML1 receptors (ML1 receptors): very high affinity | binding affinity for dopamine receptors (dopamine receptors): virtually no binding affinity | selectivity with respect to ML2 receptors (ML2 receptors): excellent selectivity | binding affinity for opiate receptors (opiate receptors): virtually no binding affinity

Cc1ccc(-c2nc3ccc(C)cn3c2CC(=O)N(C)C)cc1 [zolpidem, N,N,6-trimethyl-2-(4-methylphenyl)-imidazo[1,2-s]pyridine-3-acetamide]
kinetics in the therapeutical dose range ([16]; between 5 and 10 mg in conventional forms): linear kinetics | bioavailability ([16]; following oral administration): 70% | duration of action ([16]; in vivo): up to 6 hours | time at which peak plasma concentration is reached ([16]; in vivo): 0.5 to 3 h | elimination half-life ([16]; mean): 2.4 h
